Measured values from PubChem BioAssay AID1963849 (Molecular Pharmacology Branch, DTP, NCI, 2024).
pIC50: −log10 of the molar value.

System: 299254-011-R-J1-PDC complex spheroid viability
Assay: Anticancer human tumor 299254-011-R-J1-PDC patient-derived melanoma cell line growth inhibition [POLQ]
Details: for pIC50: curve of first compound; for viability, T/C: stronger effect = lower value
Method in brief: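 Three-cell-type spheroids modelling solid tumor plus stroma served as the readout system; POL inhibitors were tested individually and in combination, concentration ranges set by clinical Cmax where known.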
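Further: spheroids exposed to drugs for one week before measurement.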
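Wherever viability, T/C is given: percent viability relative to DMSO vehicle control taken as 100%.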

## CC(=O)O[C@H]1C(=O)[C@@]2(C)[C@H]([C@H](OC(=O)c3ccccc3)[C@]3(O)C[C@H](OC(=O)[C@H](O)[C@@H](NC(=O)c4ccccc4)c4ccccc4)C(C)=C1C3(C)C)[C@]1(OC(C)=O)CO[C@@H]1C[C@@H]2O + Nc1ccc(C#CCN(C(=O)Cc2ncc(C(F)(F)F)cc2C(F)(F)F)c2ccc(F)cc2)nn1
Second compound 0.0316 µM
  pIC50: 6.82
Second compound 0.1 µM
  pIC50: 7.07
Second compound 0.316 µM
  pIC50: 6.96
Second compound 1 µM
  pIC50: 7.30
Second compound 3.16 µM
  pIC50: 7.60
Second compound 10 µM
  pIC50: > 8.02
Second compound 0.0316 µM, first compound 0.00949 µM
  viability, T/C: 90.2%
Second compound 0.0316 µM, first compound 0.03 µM
  viability, T/C: 76.6%
Second compound 0.0316 µM, first compound 0.0949 µM
  viability, T/C: 59.5%
Second compound 0.0316 µM, first compound 0.3 µM
  viability, T/C: 37.8%
Second compound 0.0316 µM, first compound 0.949 µM
  viability, T/C: 28.6%
Second compound 0.0316 µM, first compound 3 µM
  viability, T/C: 24.8%
Second compound 0.1 µM, first compound 0.00949 µM
  viability, T/C: 103%
Second compound 0.1 µM, first compound 0.03 µM
  viability, T/C: 78.6%
Second compound 0.1 µM, first compound 0.0949 µM
  viability, T/C: 43.7%
Second compound 0.1 µM, first compound 0.3 µM
  viability, T/C: 39.5%
Second compound 0.1 µM, first compound 0.949 µM
  viability, T/C: 28.4%
Second compound 0.1 µM, first compound 3 µM
  viability, T/C: 26.9%
Second compound 0.316 µM, first compound 0.00949 µM
  viability, T/C: 84.2%
Second compound 0.316 µM, first compound 0.03 µM
  viability, T/C: 85.3%
Second compound 0.316 µM, first compound 0.0949 µM
  viability, T/C: 52%
Second compound 0.316 µM, first compound 0.3 µM
  viability, T/C: 32.5%
Second compound 0.316 µM, first compound 0.949 µM
  viability, T/C: 27.8%
Second compound 0.316 µM, first compound 3 µM
  viability, T/C: 24.5%
Second compound 1 µM, first compound 0.00949 µM
  viability, T/C: 80.8%
Second compound 1 µM, first compound 0.03 µM
  viability, T/C: 58.2%
Second compound 1 µM, first compound 0.0949 µM
  viability, T/C: 39.2%
Second compound 1 µM, first compound 0.3 µM
  viability, T/C: 32.3%
Second compound 1 µM, first compound 0.949 µM
  viability, T/C: 21.7%
Second compound 1 µM, first compound 3 µM
  viability, T/C: 25.4%
Second compound 3.16 µM, first compound 0.00949 µM
  viability, T/C: 74.7%
Second compound 3.16 µM, first compound 0.03 µM
  viability, T/C: 43.5%
Second compound 3.16 µM, first compound 0.0949 µM
  viability, T/C: 35.5%
Second compound 3.16 µM, first compound 0.3 µM
  viability, T/C: 25.9%
Second compound 3.16 µM, first compound 0.949 µM
  viability, T/C: 22.7%
Second compound 3.16 µM, first compound 3 µM
  viability, T/C: 25.4%
Second compound 10 µM, first compound 0.00949 µM
  viability, T/C: 47.5%
Second compound 10 µM, first compound 0.03 µM
  viability, T/C: 36%
Second compound 10 µM, first compound 0.0949 µM
  viability, T/C: 26.9%
Second compound 10 µM, first compound 0.3 µM
  viability, T/C: 20.9%
Second compound 10 µM, first compound 0.949 µM
  viability, T/C: 24.8%
Second compound 10 µM, first compound 3 µM
  viability, T/C: 23.2%

## CC[C@@]1(O)C(=O)OCc2c1cc1n(c2=O)Cc2cc3c(CN(C)C)c(O)ccc3nc2-1 + Nc1ccc(C#CCN(C(=O)Cc2ncc(C(F)(F)F)cc2C(F)(F)F)c2ccc(F)cc2)nn1
Second compound 0.0316 µM
  pIC50: < 7.00
Second compound 0.1 µM
  pIC50: < 7.00
Second compound 0.316 µM
  pIC50: < 7.00
Second compound 1 µM
  pIC50: < 7.00
Second compound 3.16 µM
  pIC50: < 7.00
Second compound 10 µM
  pIC50: < 7.00
Second compound 0.0316 µM, first compound 0.000316 µM
  viability, T/C: 133%
Second compound 0.0316 µM, first compound 0.001 µM
  viability, T/C: 112%
Second compound 0.0316 µM, first compound 0.00316 µM
  viability, T/C: 108%
Second compound 0.0316 µM, first compound 0.01 µM
  viability, T/C: 101%
Second compound 0.0316 µM, first compound 0.0316 µM
  viability, T/C: 88.5%
Second compound 0.0316 µM, first compound 0.1 µM
  viability, T/C: 77.8%
Second compound 0.1 µM, first compound 0.000316 µM
  viability, T/C: 111%
Second compound 0.1 µM, first compound 0.001 µM
  viability, T/C: 107%
Second compound 0.1 µM, first compound 0.00316 µM
  viability, T/C: 105%
Second compound 0.1 µM, first compound 0.01 µM
  viability, T/C: 94.7%
Second compound 0.1 µM, first compound 0.0316 µM
  viability, T/C: 94.8%
Second compound 0.1 µM, first compound 0.1 µM
  viability, T/C: 84.6%
Second compound 0.316 µM, first compound 0.000316 µM
  viability, T/C: 106%
Second compound 0.316 µM, first compound 0.001 µM
  viability, T/C: 102%
Second compound 0.316 µM, first compound 0.00316 µM
  viability, T/C: 86.7%
Second compound 0.316 µM, first compound 0.01 µM
  viability, T/C: 103%
Second compound 0.316 µM, first compound 0.0316 µM
  viability, T/C: 112%
Second compound 0.316 µM, first compound 0.1 µM
  viability, T/C: 92.9%
Second compound 1 µM, first compound 0.000316 µM
  viability, T/C: 99.6%
Second compound 1 µM, first compound 0.001 µM
  viability, T/C: 106%
Second compound 1 µM, first compound 0.00316 µM
  viability, T/C: 107%
Second compound 1 µM, first compound 0.01 µM
  viability, T/C: 111%
Second compound 1 µM, first compound 0.0316 µM
  viability, T/C: 109%
Second compound 1 µM, first compound 0.1 µM
  viability, T/C: 96%
Second compound 3.16 µM, first compound 0.000316 µM
  viability, T/C: 94.2%
Second compound 3.16 µM, first compound 0.001 µM
  viability, T/C: 112%
Second compound 3.16 µM, first compound 0.00316 µM
  viability, T/C: 95%
Second compound 3.16 µM, first compound 0.01 µM
  viability, T/C: 96.9%
Second compound 3.16 µM, first compound 0.0316 µM
  viability, T/C: 92.2%
Second compound 3.16 µM, first compound 0.1 µM
  viability, T/C: 96.6%
Second compound 10 µM, first compound 0.000316 µM
  viability, T/C: 102%
Second compound 10 µM, first compound 0.001 µM
  viability, T/C: 103%
Second compound 10 µM, first compound 0.00316 µM
  viability, T/C: 95%
Second compound 10 µM, first compound 0.01 µM
  viability, T/C: 94.2%
Second compound 10 µM, first compound 0.0316 µM
  viability, T/C: 99.6%
Second compound 10 µM, first compound 0.1 µM
  viability, T/C: 68.5%
